Like-named read-outs stand apart in the source and are kept apart here.
What was measured:
[1] = test system: E. coli; settings: cited from earlier work
[2] = test system: P. vulgaris; parameters: key: Susceptible = S; Resistant = R; settings: cited from earlier work
[3] = test system: Klebsiella; parameters: key: Susceptible = S; Resistant = R; settings: cited from earlier work
[4] = test system: E. coli; assay: Growth of E. coli in antibiotic compartments of the platform (FIG. 3); assay type: cell-based; settings: illustrated E. coli of FIG. 3
From the text: The photos show growth of E. coli at different quantities of bacteria/ml urine.

[5] = test system: E. faecium; parameters: key: Susceptible = S; Resistant = R; settings: cited from earlier work
[6] = Stability of the antimicrobial in the semi-solid media; assay type: physicochemical
From the text: Stability of the antimicrobial in the semi-solid media may depend on the pH-value. The pH-value should preferably not exceed certain limits as this will influence the antimicrobial effect. The stability of Ampicillin and Mecillinam has been improved by adjusting the pH-value of the semi-solid media to 6.0.

[7] = test system: P. mirabilis; parameters: key: Susceptible = S; Resistant = R; settings: cited from earlier work
[8] = test system: E. coli; parameters: key: Susceptible = S; Resistant = R; settings: cited from earlier work
[9] = test system: Morganella; parameters: key: Susceptible = S; Resistant = R; settings: cited from earlier work
[10] = test system: Candida sp.; parameters: key: Susceptible = S; Resistant = R; settings: cited from earlier work
[11] = test system: Pseud. Aeruginosa; parameters: key: Susceptible = S; Resistant = R; settings: cited from earlier work
[12] = test system: E. faecium; assay: Growth on Flexicult plate, susceptibility/resistance to the five antibiotics (FIG. 4, Table A); assay type: cell-based
From the text: (§1) The kit was developed for urine culture in the primary health care setting. It is designed preferably as a nine cm Petri dish divided into six compartments: One larger compartment for quantitative analysis and five smaller compartments for susceptibility testing. The agar in each small compartment contains one of five antimicrobials (for Denmark and Scandinavia preferably: trimethoprim, sulfamethizole, ampicillin, nitrofurantoin and mecillinam (amdinocillin)) at a concentration adjusted to the breakpoint, such that growth in these compartments indicates resistance, and no growth indicates susceptibility. The Petri dish preferably has higher sides, approximately 2.48 cm, than the usual dish, i.e. ca. 1.48 cm. This allows a larger amount, maximum 100 ml, of urine to be poured onto the dish for inoculation.
(§2) Reading the susceptibility of the bacterial growth: Each bacterium (if more than one) is read individually: The growth in each of the antibiotic fields is compared with the growth on the control agar. […] If there is no growth (or substantially less than the control agar), then the bacterium is considered to be susceptible to the antibiotic. […] When nitrofurantoin and mecillinam are used as antibiotics, a few single colonies may be seen of the same type as the bacterium on the control agar: These are not considered to be resistant mutants but “persisters,” i.e. if retested they will appear susceptible. This is commonly seen also by disc diffusion especially for mecillinam.

[13] = test system: Candida spp.; assay: as above; assay type: cell-based
From the text: as §1, §2

[14] = test system: E. faecalis; assay: as above; assay type: cell-based
From the text: as §1, §2

[15] = test system: P. aureginosa; assay: as above; assay type: cell-based
From the text: as §1, §2

[16] = test system: Morganella spp.; assay: as above; assay type: cell-based
From the text: as §1, §2

[17] = test system: Citrobacter spp.; assay: as above; assay type: cell-based
From the text: as §1, §2

[18] = test system: Proteus mirabilis; assay: as above; assay type: cell-based
From the text: as §1, §2

[19] = test system: Enterobacter spp; assay: as above; assay type: cell-based
From the text: as §1, §2

[20] = test system: Klebsiella spp.; assay: as above; assay type: cell-based
From the text: as §1, §2

[21] = test system: P. vulgaris; assay: as above; assay type: cell-based
From the text: as §1, §2

[22] = test system: E. coli; assay: as above; assay type: cell-based
From the text: as §1, §2

[23] = test system: S. saprophyticus; assay: as above; assay type: cell-based
From the text: as §1, §2

[24] = test system: S. agalactiae; parameters: key: Susceptible = S; Resistant = R; settings: cited from earlier work
[25] = test system: E. coli; settings: 1142 E. coli outpatient urinary isolates, USA and Canada; cited from earlier work
[26] = test system: E. faecalis; parameters: key: Susceptible = S; Resistant = R; settings: cited from earlier work
[27] = test system: Citrobacter; parameters: key: Susceptible = S; Resistant = R; settings: cited from earlier work
[28] = test system: Enterobacter; parameters: key: Susceptible = S; Resistant = R; settings: cited from earlier work
[29] = test system: S. saprophyticus; parameters: key: Susceptible = S; Resistant = R; settings: cited from earlier work
[30] = test system: Staphylococcus saprophyticus ATCC 49907; settings: 32 mg/l nitrofurantoin; 10^5 CFU/ml suspension, 18-24 hours at 37° C.

CC1(C)SC2C(NC(=O)C(N)c3ccccc3)C(=O)N2C1C(=O)O (centres unmarked) [Ampicillin, 7-(2-amino-2-phenyl-acetyl)amino-3,3-dimethyl-6-oxo-2-thia-5-azabicyclo[3.2.0]heptane-4-carboxylic acid]
Antimicrobial resistance of E. coli (resistance in percent) ([1]; Austria, n 126): 17.5%
Antimicrobial resistance of E. coli (resistance in percent) ([1]; Belgium, n 137): 30.7%
Antimicrobial resistance of E. coli (resistance in percent) ([1]; Canada, n 166): 29.5%
Antimicrobial resistance of E. coli (resistance in percent) ([1]; Denmark, n 85): 22.4%
Antimicrobial resistance of E. coli (resistance in percent) ([1]; Finland, n 182): 19.8%
Antimicrobial resistance of E. coli (resistance in percent) ([1]; France, n 199): 27.6%
Antimicrobial resistance of E. coli (resistance in percent) ([1]; Germany, n 138): 29.0%
Antimicrobial resistance of E. coli (resistance in percent) ([1]; Greece, n 132): 22.0%
Antimicrobial resistance of E. coli (resistance in percent) ([1]; Ireland, n 154): 44.8%
Antimicrobial resistance of E. coli (resistance in percent) ([1]; Luxembourg, n 24): 41.7%
Antimicrobial resistance of E. coli (resistance in percent) ([1]; Norway, n 168): 23.8%
Antimicrobial resistance of E. coli (resistance in percent) ([1]; Portugal, n 86): 45.3%
Antimicrobial resistance of E. coli (resistance in percent) ([1]; Spain, n 191): 53.9%
Antimicrobial resistance of E. coli (resistance in percent) ([1]; Sweden, n 193): 15.5%
Antimicrobial resistance of E. coli (resistance in percent) ([1]; Switzerland, n 122): 27.0%
Antimicrobial resistance of E. coli (resistance in percent) ([1]; The Netherlands, n 195): 28.7%
Antimicrobial resistance of E. coli (resistance in percent) ([1]; Total, n 2478): 29.8%
Antimicrobial resistance of E. coli (resistance in percent) ([1]; United Kingdom, n 180): 37.2%
Normal susceptibility/resistance [2]: R
Normal susceptibility/resistance [3]: R
resistant or susceptible (growth in antibiotic compartment) [4]: resistant
Normal susceptibility/resistance [5]: S
stability in the semi-solid media [6]: improved
Normal susceptibility/resistance [7]: S
Normal susceptibility/resistance [8]: S
Normal susceptibility/resistance [9]: R
Normal susceptibility/resistance [10]: R
Normal susceptibility/resistance [11]: R
Susceptibility = S or Resistance = R [12]: S
Susceptibility = S or Resistance = R [13]: R
Susceptibility = S or Resistance = R [14]: S
Susceptibility = S or Resistance = R [15]: R
Susceptibility = S or Resistance = R [16]: R
Susceptibility = S or Resistance = R [17]: R
Susceptibility = S or Resistance = R [18]: S
Susceptibility = S or Resistance = R [19]: R
Susceptibility = S or Resistance = R [20]: R
Susceptibility = S or Resistance = R [21]: R/S
Susceptibility = S or Resistance = R [22]: R
Susceptibility = S or Resistance = R [23]: S
Normal susceptibility/resistance [24]: S
Overall resistance in E. coli [25]: 37.7%
Normal susceptibility/resistance [26]: S
Normal susceptibility/resistance [27]: R
Normal susceptibility/resistance [28]: R
Normal susceptibility/resistance [29]: S

O=C1CN(N=Cc2ccc([N+](=O)[O-])o2)C(=O)N1 [Nitrofurantoin, 1-[(5-nitro-2-furyl)methylideneamino]imidazolidine-2,4-dione]
Antimicrobial resistance of E. coli (resistance in percent) ([1]; Austria, n 126): 0.8%
Antimicrobial resistance of E. coli (resistance in percent) ([1]; Belgium, n 137): 0.7%
Antimicrobial resistance of E. coli (resistance in percent) ([1]; Canada, n 166): 1.2%
Antimicrobial resistance of E. coli (resistance in percent) ([1]; Denmark, n 85): 1.2%
Antimicrobial resistance of E. coli (resistance in percent) ([1]; Finland, n 182): 0.5%
Antimicrobial resistance of E. coli (resistance in percent) ([1]; France, n 199): 1.0%
Antimicrobial resistance of E. coli (resistance in percent) ([1]; Germany, n 138): 0.7%
Antimicrobial resistance of E. coli (resistance in percent) ([1]; Greece, n 132): 3.0%
Antimicrobial resistance of E. coli (resistance in percent) ([1]; Ireland, n 154): 0%
Antimicrobial resistance of E. coli (resistance in percent) ([1]; Luxembourg, n 24): 4.2%
Antimicrobial resistance of E. coli (resistance in percent) ([1]; Norway, n 168): 0%
Antimicrobial resistance of E. coli (resistance in percent) ([1]; Portugal, n 86): 5.8%
Antimicrobial resistance of E. coli (resistance in percent) ([1]; Spain, n 191): 4.2%
Antimicrobial resistance of E. coli (resistance in percent) ([1]; Sweden, n 193): 0%
Antimicrobial resistance of E. coli (resistance in percent) ([1]; Switzerland, n 122): 0.8%
Antimicrobial resistance of E. coli (resistance in percent) ([1]; The Netherlands, n 195): 1.0%
Antimicrobial resistance of E. coli (resistance in percent) ([1]; Total, n 2478): 1.2%
Antimicrobial resistance of E. coli (resistance in percent) ([1]; United Kingdom, n 180): 0%
Normal susceptibility/resistance [2]: R
Normal susceptibility/resistance [3]: S/R
resistant or susceptible (growth in antibiotic compartment) [4]: susceptible
Normal susceptibility/resistance [5]: S
Normal susceptibility/resistance [7]: S/R
Normal susceptibility/resistance [8]: S
Normal susceptibility/resistance [9]: R
Normal susceptibility/resistance [10]: R
Normal susceptibility/resistance [11]: R
Susceptibility = S or Resistance = R [12]: R
Susceptibility = S or Resistance = R [13]: R
Susceptibility = S or Resistance = R [14]: R
Susceptibility = S or Resistance = R [15]: R
Susceptibility = S or Resistance = R [16]: R/S
Susceptibility = S or Resistance = R [17]: S
Susceptibility = S or Resistance = R [18]: S
Susceptibility = S or Resistance = R [19]: S
Susceptibility = S or Resistance = R [20]: R
Susceptibility = S or Resistance = R [21]: R/S
Susceptibility = S or Resistance = R [22]: S
Susceptibility = S or Resistance = R [23]: S
reduction in the growth of/numbers of colonies formed [30]: at least 4 log CFU/ml
Normal susceptibility/resistance [24]: S
Overall resistance in E. coli [25]: 1.1%
Normal susceptibility/resistance [26]: S
Normal susceptibility/resistance [27]: S
Normal susceptibility/resistance [28]: S/R
Normal susceptibility/resistance [29]: S

Reference: patent publication US8753875B2, “Compositions and means for diagnosing microbial infections” (priority 2007, dated 2014)
